Measured values taken from patent publication US20200222400A1, “METHODS FOR THE TREATMENT OF NEUROLOGICAL DISORDERS” (Yumanity Therapeutics, Inc., priority 2019, published 2020).

Columns and labels:
[1] = test system: cellular fatty acid desaturase activity (Ole1); experiment: Quantitative lipid profiling of yeast by LC-MS/MS; type: cell-based, Saccharomyces cerevisiae
Protocol: Overnight cultures of yeast strain W303 pdr1Δ pdr3Δ were diluted into CSM media with 2% (w/v) raffinose, OD600 0.25, and grown for 4 h before resuspending at an OD600 of 0.2 in CSM media with 2% (w/v) galactose and adding Compound 2 or DMSO at the indicated concentrations. Cells were grown for the indicated timepoints before centrifugation, washing once in PBS, and freezing pellets. Lipids were extracted from pellets by resuspending the pellets in 600 μL methanol, 300 μL water, and 400 μL chloroform, followed by cell lysis by vortexing with glass beads for 1 min. Samples were then centrifuged at 10,000×g for 10 min, and the bottom layer that formed (organic/lipids) was moved into a new tube and evaporated. Samples were then analyzed by LC/MS/MS using a Thermo Scientific Q Exactive™ Orbitrap™ coupled to a Dionex UltiMate® 3000 ultra-high performance liquid chromatography system, following the method described in Tafesse et al. PLoS Pathog. 11(10): e1005188, 2015.

human SCD5 = target: T1, human SCD5 (Homo sapiens, UniProt Q86SK9); experiment: Growth of humanized yeast expressing human SCD5 as sole desaturase; type: cell-based, Saccharomyces cerevisiae expressing Saccharomyces cerevisiae expressing Saccharomyces cerevisiae expressing Saccharomyces cerevisiae expressing Saccharomyces cerevisiae expressing human SCD5 SCD5 SCD5 SCD5 SCD5; settings: for half-maximal inhibitory concentration (IC50), SCD5 humanized strain: yeast growth
T1 construct: host or cells: S. cerevisiae ole1Δ strain (W303 pdr1Δ pdr3Δ background), pRS316 plasmid, TDH3 promoter
T1 sequence (Q86SK9 1-330): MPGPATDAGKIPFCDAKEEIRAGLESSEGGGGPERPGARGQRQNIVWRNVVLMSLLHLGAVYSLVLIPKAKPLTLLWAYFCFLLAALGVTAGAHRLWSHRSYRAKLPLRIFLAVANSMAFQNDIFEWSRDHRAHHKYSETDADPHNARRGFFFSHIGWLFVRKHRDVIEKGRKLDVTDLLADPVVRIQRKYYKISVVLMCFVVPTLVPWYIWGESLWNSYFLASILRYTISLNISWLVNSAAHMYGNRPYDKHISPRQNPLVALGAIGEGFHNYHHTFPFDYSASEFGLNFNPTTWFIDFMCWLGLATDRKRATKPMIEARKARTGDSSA
Description: (§1) To generate yeast strains expressing SCD1 or SCD5 as the sole desaturase, the human SCD1 and SCD5 genes were cloned from cDNAs (Harvard PlasmID database Clone ID HsCD00340237 for SCD1 and HsCD00342695 for SCD5) into yeast plasmid pRS316 (ATCC 77145) between the yeast TDH3 promoter and the CYC1 terminator. The coding sequence of yeast OLE1 was also cloned into this plasmid). These clones were then transformed into the ole1Δ strain and plated on CSM-Ura media (CSM lacking uracil) with 2% glucose (w/v) and independent colonies were isolated and amplified.
(§2) All compound profiling experiments were performed using the same basic protocol. Different genetic backgrounds (e.g., gene deletions) or conditions (e.g., addition of oleic and palmitoleic acid) were replaced as indicated below.
(§3) Compound stocks (10 mM in 100% DMSO) were arrayed into 384 round well, v-bottom polypropylene plates and diluted according to indicated dilution factors. Compound administration was performed in two separate steps. First, 15 μL of CSM-Galactose (induces expression of toxic protein) was dispensed into clear 384 well assay plates using a MULTIDROP™ Combi reagent dispenser. The diluted compound stock plates were then applied to the assay plates using an automated workstation (Perkin Elmer JANUS™) outfitted with a 384 pin tool containing slotted pins that deliver 100 nL of compound. The cultures described above were then diluted to a 2× concentration (0.03 and 0.08 for alpha-synuclein and ApoE, final OD600 of 0.015 and 0.04) in CSM-Galactose. For wild-type and Ole1/SCD1/SCD5 plasmid-containing strains, the 2× cell density was 0.02. In all experiments, 15 μL culture was then dispensed into the pinned assay plate to achieve 30 μL of the 1×OD600 culture and a top drug concentration of […]. For 96-well assays (FIGS. 2A and 2B), compound dilutions in DMSO were generated in 96 well plates and 1 μL was manually pipetted into 96 well clear bottom assay plates.
(§4) For experiments using a plasmid-borne copy of Ole1, SCD1, or SCD5 (FIGS. 4B, 7, and 8), media lacking uracil (SX-Ura, where X is glucose, raffinose, or galactose), was used for all steps of the compound profiling protocol to ensure its maintenance throughout the assay.
(§5) After yeast delivery, assay plates were incubated under humidified conditions at 30° C. for 24 to 40 h. ApoE4 rescue experiments were stopped at 24 h, aSyn experiments at 40 h, Ole1 at 24 h, and SCD1/SCD5 at 40 h. The growth of yeast was monitored by reading the OD600 of each well using a microplate reader (Perkin Elmer EnVision™). For model rescue experiments, raw data were processed by background subtracting and calculating a fold-change relative to DMSO control [(EXP−0.035)/(DMSO−0.035)—where 0.035 is the OD600 contributed by an empty well containing 30 μL of media alone]. For growth inhibition of wild-type cells, raw data were processed by background subtracting and converting values to a percent of the nontreated condition for that strain [(EXP−0.035)/(DMSO−0.035)×100%].

yeast OLE1 = target: T2, yeast OLE1 (Saccharomyces cerevisiae, UniProt P21147); experiment: Growth of yeast surviving solely on yeast OLE1; type: cell-based; settings: percent of DMSO-treated condition
T2 construct: expressed in transfected cells; host or cells: S. cerevisiae ole1Δ strain (W303 pdr1Δ pdr3Δ background), pRS316 plasmid, TDH3 promoter
T2 sequence (P21147 1-510): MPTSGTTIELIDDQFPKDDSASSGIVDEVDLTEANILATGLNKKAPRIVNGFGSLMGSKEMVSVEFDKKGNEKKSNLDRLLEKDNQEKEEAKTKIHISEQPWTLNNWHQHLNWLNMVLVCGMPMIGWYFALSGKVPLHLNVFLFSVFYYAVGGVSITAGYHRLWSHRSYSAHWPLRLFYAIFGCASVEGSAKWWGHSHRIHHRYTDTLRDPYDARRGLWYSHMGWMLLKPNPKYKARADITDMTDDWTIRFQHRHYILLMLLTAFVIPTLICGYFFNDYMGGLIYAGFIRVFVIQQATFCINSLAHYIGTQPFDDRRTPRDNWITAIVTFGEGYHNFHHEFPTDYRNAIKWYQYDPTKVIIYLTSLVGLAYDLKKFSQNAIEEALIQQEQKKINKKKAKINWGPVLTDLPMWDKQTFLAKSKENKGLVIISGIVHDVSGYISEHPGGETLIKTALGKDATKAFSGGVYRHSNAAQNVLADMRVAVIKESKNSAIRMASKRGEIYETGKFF
Description: as §1, §2, §3, §4, §5

human SCD1 = target: T3, human SCD1 (Homo sapiens, UniProt O00767); experiment: Growth of humanized yeast expressing human SCD1 as sole desaturase; type: cell-based, humanized yeastized yeastized yeastized yeast; settings: for half-maximal inhibitory concentration (IC50), SCD1 humanized strain: yeast growth
T3 construct: host or cells: S. cerevisiae ole1Δ strain (W303 pdr1Δ pdr3Δ background), pRS316 plasmid, TDH3 promoter
T3 sequence (O00767 1-359): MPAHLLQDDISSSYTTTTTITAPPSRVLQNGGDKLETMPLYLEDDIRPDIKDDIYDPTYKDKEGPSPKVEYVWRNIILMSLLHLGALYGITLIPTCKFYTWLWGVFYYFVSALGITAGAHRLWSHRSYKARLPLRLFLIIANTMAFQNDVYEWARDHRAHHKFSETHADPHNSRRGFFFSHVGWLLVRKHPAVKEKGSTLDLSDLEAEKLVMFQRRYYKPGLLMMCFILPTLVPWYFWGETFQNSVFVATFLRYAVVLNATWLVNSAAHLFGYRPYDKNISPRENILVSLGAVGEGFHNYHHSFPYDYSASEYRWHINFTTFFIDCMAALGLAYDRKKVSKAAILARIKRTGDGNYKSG
Protocol: The coding sequence of yeast OLE1 was also cloned into this plasmid). These clones were then transformed into the ole1Δ strain and plated on CSM-Ura media (CSM lacking uracil) with 2% glucose (w/v) and independent colonies were isolated and amplified.
as §2
Compound administration was performed in two separate steps. First, 15 μL of CSM-Galactose (induces expression of toxic protein) was dispensed into clear 384 well assay plates using a MULTIDROP™ Combi reagent dispenser. […] The cultures described above were then diluted to a 2× concentration (0.03 and 0.08 for alpha-synuclein and ApoE, final OD600 of 0.015 and 0.04) in CSM-Galactose. For wild-type and Ole1/SCD1/SCD5 plasmid-containing strains, the 2× cell density was 0.02.
as §4
After yeast delivery, assay plates were incubated under humidified conditions at 30° C. for 24 to 40 h. ApoE4 rescue experiments were stopped at 24 h, aSyn experiments at 40 h, Ole1 at 24 h, and SCD1/SCD5 at 40 h. The growth of yeast was monitored by reading the OD600 of each well using a microplate reader (Perkin Elmer EnVision™).

[2] = test system: apolipoprotein E4 (ApoE4) Alzheimer's disease yeast model; experiment: ApoE4 yeast model rescue (growth, OD600); type: cell-based, Saccharomyces cerevisiae; settings: 12-point dose
Description: Strain ApoE-mga2Δ was generated by amplifying 1000 base pairs (bp) upstream and downstream of the MGA2 ORF in a strain in which MGA2 was deleted using a G418 (GENETICIN®) resistance cassette (kanMX) (Piotrowski et al. Proc. Natl. Acad. Sci. USA 112(12):E1490-1497, 2015) and transforming the resulting deletion cassette into the ApoE4 strain in the BY4741 (ATCC 201388) genetic background. The ApoE strain is described, for example, in International Patent Application Publication No. WO 2016/040794, which is incorporated herein by reference in its entirety.
as §2
Yeast were cultured using standard techniques in complete synthetic media (CSM) and yeast nitrogen base supplemented with 2% (w/v) carbon source (glucose, raffinose, or galactose) to regulate the expression of the toxic disease protein. An initial starter culture was inoculated in 3 mL CSM-Glucose media and incubated overnight in a 30° C. shaker incubator (225 rpm). […]
(§6) After yeast delivery, assay plates were incubated under humidified conditions at 30° C. for 24 to 40 h. […] The growth of yeast was monitored by reading the OD600 of each well using a microplate reader (Perkin Elmer EnVision™). […]

Ole1/SCD = experiment: Yeast growth inhibition in control / wild-type condition (OD600); type: cell-based, Saccharomyces cerevisiae; settings: ApoE4 strain, non-inducing conditions, raffinose
Description: Strain GMYF was constructed from the ABC16/Green monster strain described in Suzuki et al. Nat. Methods 8(2):159-164, 2011. In this strain, YAP1 was deleted using a HIS3-MX6 cassette, and FLR1 was deleted using a NAT-MX6 cassette using standard methods. The knockout cassettes were PCR-amplified from plasmid templates (see, e.g., Bahler et al. Yeast 14(10):943-951, 1998; Longtine et al. Yeast 14(10):953-961, 1998) and transformed into yeast using lithium acetate-based transformation (Gietz et al. Methods Mol. Biol. 1205:1-12, 2014). The yap1::his3 deletion strain was selected on media lacking histidine and flr1::NAT on plates containing 100 μg/mL nourseothricin. All strains were confirmed by diagnostic PCR. Strain W303 pdr1Δ pdr3Δ was constructed from W303-1A (American Type Culture Collection (ATCC) 208352) by deleting PDR1 and PDR3 with kan-MX6 cassettes separately in MATa and MATα W303a isolates, mating, sporulating, and identifying the double deletion haploids by tetrad dissection and identification of non-parental ditype tetrads. Strain W-erg3 was derived from W303 pdr1Δ pdr3 by deleting SNQ2 with NAT-MX6, YAP1 with HIS3-MX6, and ERG3 with BleMX. […]
as §6

[3] = percent of DMSO-treated condition

| Structure (SMILES) | growth inhibition of yeast expressing OLE1 (yeast OLE1) | half-maximal inhibitory concentration (IC50), SCD5 humanized strain (human SCD5) | half-maximal inhibitory concentration (IC50), SCD1 humanized strain (human SCD1) | other results |
| --- | --- | --- | --- | --- |
| Cc1nn(C)c2cc(-c3noc(C4CCN(C(=O)CNC(=O)c5ccccc5)CC4)n3)ccc12 [Compound 2, N-(2-(4-(3-(1,3-dimethyl-1H-indazol-6-yl)-1,2,4-oxadiazol-5-yl)piperidin-1-yl)-2-oxoethyl)benzamide] | – | – | – | decrease in abundance of unsaturated lipid phosphatidylcholine 16:1, 18:1 ([1]; 8 h treatment, wild-type yeast): > 12 fold; increase in abundance of saturated lipid phosphatidylcholine 26:0 ([1]; 8 h treatment, wild-type yeast): > 300 fold; lipid desaturation ([1]; yeast cells): inhibited lipid desaturation |
| C[C@@H]1C[C@@H]([C@H](O)CC2CC(=O)NC(=O)C2)C(=O)[C@@H](C)C1 [Cyclohexamide, cycloheximide] | inhibited growth of all three strains with the same potency | – | – | growth inhibition of SCD5-expressing yeast (human SCD5; [3]): inhibited growth of all three strains with the same potency; growth inhibition of SCD1-expressing yeast (human SCD1; [3]): inhibited growth of all three strains with the same potency |
| O=C(O)Cn1nnc(-c2cc(N3CCC(Oc4cc(F)ccc4Br)CC3)no2)n1 [MK-8245] | resistant | low nanomolar | – | – |
| Cc1nnc(-c2ccc(N3CCC(Oc4ccccc4C(F)(F)F)CC3)nn2)s1 [MF-438] | resistant | low nanomolar | low nanomolar | – |
| COc1ccc(-c2noc(C3CCN(C(=O)CNC(=O)c4ccccc4)CC3)n2)cc1OC [Compound 1, N-(2-(4-(3-(3,4-dimethoxyphenyl)-1,2,4-oxadiazol-5-yl)piperidin-1-yl)-2-oxoethyl)benzamide] | – | – | – | rescue dose-response in ApoE4 model (OD600) [2]: bell-shaped dose-response curve; growth in control (non-inducing) condition (Ole1/SCD): growth decreased at this same concentration |
| CNC(=O)c1cccc(NC(=O)N2CCC(Oc3ccccc3Cl)CC2)c1 [Compound A939572] | resistant | low nanomolar | low nanomolar | – |
